Measured values: patent publication US20110172296A1, “MODULATION OF TRANSFORMING GROWTH FACTOR-BETA 1 EXPRESSION” (priority 2010, published 2011)
Several values for one entry are separate records, joined by “and”; a condition that tells them apart may be missing. Identical values can stand only once. In the oligonucleotide strings, read from the 5' end, every base follows the letter of its sugar. An asterisk marks phosphorothioate; unmarked linkages are phosphodiester. Other units and linkages are bracketed, terminal groups are in braces. A string of capitals states the bases alone. e = 2'-O-(2-methoxyethyl) (MOE); [5mC] = 5-methylcytosine; d = 2'-deoxy (DNA)

Legend:
human TGF-beta1 mRNA [1] = experiment: Antisense inhibition of human TGF-beta1 mRNA in HuVEC cells, single 10 nM dose, Lipofectamine 2000 (Example 2); format: cell-based; details: for % inhibition: 10 nM oligonucleotide, HuVEC, relative to untreated control cells; for inhibition of a TGF-beta1 mRNA: threshold lists of Oligo IDs, 10 nM
How it was run: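 Percent inhibition relative to untreated controls, from qRT-PCR of mRNA corrected for total RNA (RIBOGREEN). Cells were exposed 4 h to 10 nM phosphorothioate 2-13-5 MOE gapmers with Lipofectamine 2000 at 5,000 cells/well. RNA was harvested after roughly 24 h recovery.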

human TGF-beta1 mRNA [2] = experiment: Dose-dependent antisense inhibition of human TGF-beta1 in HuVEC cells, Lipofectamine 2000, 0.9375-30 nM (Example 3); format: cell-based; details: for percent inhibition of TGF-beta1: Lipofectamine 2000; for IC50: Lipofectamine 2000, Example 3
Procedure: Cells were plated at a density of 5,000 cells per well and transfected using Lipofectamine™ 2000 reagent with 0.9375 nM, 1.875 nM, 3.75 nM, 7.5 nM, 15 nM, and 30 nM concentrations of antisense oligonucleotide for 4 hours, as specified in Table 3. After a recovery period of approximately 16 hours, RNA was isolated from the cells and TGF-beta1 mRNA levels were measured by quantitative real-time PCR. Human TGF-beta1 primer probe set RTS 2980 (forward sequence CTCTCCGACCTGCCACAGA, SEQ ID NO: 160; reverse sequence […], SEQ ID NO: 53; probe sequence CCCTATTCAAGACCACCCACCTTCTGGTX, SEQ ID NO: 161) was used to measure mRNA levels. TGF-beta1 mRNA levels were adjusted according to total RNA content, as measured by RIBOGREEN®. Results are presented as percent inhibition of TGF-beta1, relative to untreated control cells.

[3] = gapmers targeted to SEQ ID NO: 1
[4] = gapmers targeted to SEQ ID NO: 2

Substance | % inhibition (human TGF-beta1 mRNA [1]; [3]) [%] | inhibition of a TGF-beta1 mRNA (human TGF-beta1 mRNA [1]) | percent inhibition of TGF-beta1 (human TGF-beta1 mRNA [2]; 0.9375 nM) [%] | percent inhibition of TGF-beta1 (human TGF-beta1 mRNA [2]; 1.875 nM) [%] | percent inhibition of TGF-beta1 (human TGF-beta1 mRNA [2]; 3.75 nM) [%] | percent inhibition of TGF-beta1 (human TGF-beta1 mRNA [2]; 7.5 nM) [%] | percent inhibition of TGF-beta1 (human TGF-beta1 mRNA [2]; 15 nM) [%] | percent inhibition of TGF-beta1 (human TGF-beta1 mRNA [2]; 30 nM) [%] | IC50 (human TGF-beta1 mRNA [2]) [nM] | % inhibition (human TGF-beta1 mRNA [1]; [4]) [%]
413970 (antisense eG*e[5mC]*d[5mC]*dT*d[5mC]*dA*dG*dG*d[5mC]*dT*dG*d[5mC]*dT*d[5mC]*d[5mC]*eT*e[5mC]*eG*eG*e[5mC]) [compound 413970] | 87 | 60% and 65% and 70% and 75% and 80% and 85% | 48 | 64 | 81 | 91 | 94 | 95 |  | 
413979 (antisense eG*eG*d[5mC]*dT*d[5mC]*d[5mC]*d[5mC]*dA*dG*d[5mC]*dG*dG*d[5mC]*dA*dA*e[5mC]*eG*eG*eA*eA) [compound 413979] | 87 | 60% and 65% and 70% and 75% and 80% and 85% | 42 | 62 | 80 | 92 | 95 | 94 |  | 
414022 (antisense eG*eG*dG*d[5mC]*dT*d[5mC]*d[5mC]*dG*dG*dT*dT*d[5mC]*dT*dG*d[5mC]*eA*e[5mC]*eT*e[5mC]*eT) [compound 414022] | 84 | 60% and 65% and 70% and 75% and 80% | 31 | 50 | 76 | 85 | 91 | 92 | 1.67 | 
414037 (antisense eG*eG*dG*dT*dG*dT*d[5mC]*d[5mC]*dT*dT*dA*dA*dA*dT*dA*e[5mC]*eA*eG*e[5mC]*e[5mC]) [compound 414037] | 89 | 60% and 65% and 70% and 75% and 80% and 85% | 56 | 74 | 87 | 93 | 93 | 92 |  | 
414058 (antisense eA*eG*dG*dT*d[5mC]*dA*dA*dG*d[5mC]*d[5mC]*dA*dT*dG*dT*dG*eG*e[5mC]*eA*e[5mC]*e[5mC]) [compound 414058] |  | 60% and 65% and 70% and 75% and 80% | 46 | 65 | 78 | 88 | 87 | 81 |  | 81
414102 (antisense eT*eT*dT*dG*dA*dA*d[5mC]*dT*dA*d[5mC]*dA*dT*dG*dG*dG*eT*e[5mC]*e[5mC]*eT*e[5mC]) [compound 414102] |  | 60% and 65% and 70% and 75% and 80% and 85% | 36 | 54 | 70 | 84 | 87 | 84 | 1.42 | 86
414107 (antisense eT*eT*d[5mC]*dA*dA*dA*dT*dG*dT*dA*dT*d[5mC]*dT*d[5mC]*dT*eA*eA*eT*eT*eA) [compound 414107] |  |  |  |  |  |  |  |  |  | 7
414108 (antisense e[5mC]*eA*d[5mC]*dA*dT*dG*d[5mC]*dA*dA*dT*d[5mC]*d[5mC]*dA*d[5mC]*d[5mC]*eG*eT*eG*eT*eT) [compound 414108] |  | 60% |  |  |  |  |  |  |  | 61
414109 (antisense eG*eG*d[5mC]*d[5mC]*dA*dA*dT*dT*dT*d[5mC]*d[5mC]*dA*dT*dT*dG*e[5mC]*eA*eT*e[5mC]*eT) [compound 414109] |  | 60% and 65% and 70% and 75% and 80% |  |  |  |  |  |  |  | 80
414110 (antisense eG*eA*dA*d[5mC]*dA*dA*dA*dT*dT*dT*dT*d[5mC]*d[5mC]*dT*dA*eT*eG*eA*eA*eA) [compound 414110] |  |  |  |  |  |  |  |  |  | 14
414111 (antisense eT*eT*dG*dA*dA*d[5mC]*dA*dA*dG*d[5mC]*d[5mC]*dG*dT*d[5mC]*dT*eA*eG*eG*eT*eG) [compound 414111] |  | 60% and 65% and 70% and 75% and 80% |  |  |  |  |  |  |  | 81
